Key:
Barnyardgrass = experiment: Herbicidal activity test, soil surface treatment; format: in vivo, Echinochloa crus-galli; design: key: 0: situations in which the condition of sprouting or vegetation at the time of examination of the plant utilized for the test was compared with and showed totally or substantially no difference with that of the untreated application; 10: situations in which the plant completely withered or the sprouting or vegetation was completely suppressed; details: 500 g/ha, sprayed onto the surface of the soil after seeding, investigated after 19 days in a greenhouse
Experimental: Soil was packed into a round plastic pot having a diameter of 10 cm and depth of 10 cm. Barnyardgrass, Blackgrass, Ivyleaf morningglory were seeded. Five (5) parts of the test compound, 6 parts of sorpol3005X (Toho Chemical Company) and 89 parts of xylene were well mixed to produce an emulsion. A certain amount thereof was diluted with water containing 0.1% (v/v) of a sticking agent at a proportion of 1000 L for 1 hectare and was spread uniformly with a spray-gun onto the surface of the soil. After cultivating the plants for 19 days in a greenhouse, the herbicidal activity was investigated.
In the above Tables 3 and 4, the strength of the herbicidal activity is shown stepwise as 0, 1, 2, 3, 4, 5, 6, 7, 8, 9, and 10.

[1] = system: present invention protein (A14); experiment: Detection of the ability to convert compound (II) to compound (III), E. coli pKSN1491AF extract; format: in vitro ADME, Streptomyces glomerochromogenes IFO 13673t; details: 3 ppm of compound (II) labeled with 14C, components A, B, 10 minutes at 30° C.
Experimental: (§1) Reaction solutions of 30 μl were prepared and maintained for 10 minutes at 30° C. The reaction solutions consisted of a 0.1M potassium phosphate buffer (pH7.0) containing 3 ppm of compound (II) labeled with ^14C, 2 mM of β-NADPH (hereinafter, referred to as “component A”) (Oriental Yeast Company), 2 mg/ml of a ferredoxin derived from spinach (hereinafter referred to as “component B”) (Sigma Company), 0.1 U/ml of ferredoxin reductase (hereinafter, referred to as “component C”) (Sigma Company) and 23 μl of the supernatant fraction recovered in Example 32(2). Similarly to Example 4(3), the reaction solutions after the maintenance were extracted with ethyl acetate and the extracted layers were TLC analyzed. […] A spot corresponding to compound (III) was detected from the reaction solution containing E. coli pKSN849AF extract. In contrast, such a spot was not detected from the reaction solution containing E. coli pKSN2 extract.
Reaction solutions of 30 μl were prepared and maintained for 10 minutes at 30° C. […] The reaction solutions after the maintenance were extracted with ethyl acetate and the extracted layers were TLC analyzed. […] A spot corresponding to compound (III) was detected from the reaction solution containing E. coli pKSN1491AF extract. In contrast, such a spot was not detected from the reaction solution containing E. coli pKSN2 extract.

[2] = system: present invention protein (A15); experiment: Detection of the ability to convert compound (II) to compound (III), E. coli pKSN1555AF extract; format: in vitro ADME, Streptomyces olivochromogenes IFO 12444; details: 3 ppm of compound (II) labeled with 14C, components A, B, 10 minutes at 30° C.
Experimental: as §1
Reaction solutions of 30 μl were prepared and maintained for 10 minutes at 30° C. […] The reaction solutions after the maintenance were extracted with ethyl acetate and the extracted layers were TLC analyzed. […] A spot corresponding to compound (III) was detected from the reaction solution containing E. coli pKSN1555AF extract. In contrast, such a spot was not detected from the reaction solution containing E. coli pKSN2 extract.

[3] = system: present invention protein (A18); experiment: Detection of the ability to convert compound (II) to compound (III), E. coli pKSN646BF extract; format: in vitro ADME, Streptomyces achromogenes IFO 12735; details: 3 ppm of compound (II) labeled with 14C, components A, B, 10 minutes at 30° C.
Experimental: as §1
Similarly to Example 32(3), reaction solutions of 30 μl were prepared and maintained for 10 minutes at 30° C. […] The reaction solutions after the maintenance were extracted with ethyl acetate and the extracted layers were TLC analyzed. […] A spot corresponding to compound (III) was detected from the reaction solution containing E. coli pKSN646BF extract. In contrast, such a spot was not detected from the reaction solution containing E. coli pKSN2 extract.

[4] = system: present invention protein (A21); experiment: Detection of the ability to convert compound (II) to compound (III), E. coli pKSN1543BF extract; format: in vitro ADME, Streptomyces misawanensis IFO 13855T; details: 3 ppm of compound (II) labeled with 14C, components A, B, 10 minutes at 30° C.
Experimental: as §1
Similarly to Example 32(3), reaction solutions of 30 μl were prepared and maintained for 10 minutes at 30° C. […] The reaction solutions after the maintenance were extracted with ethyl acetate and the extracted layers were TLC analyzed. […] A spot corresponding to compound (III) was detected from the reaction solution containing E. coli pKSN1543BF extract. In contrast, such a spot was not detected from the reaction solution containing E. coli pKSN2 extract.

[5] = system: present invention protein (A24); experiment: Detection of the ability to convert compound (II) to compound (III), E. coli pKSN1589BF extract; format: in vitro ADME, Streptomyces rutgersensis IFO 15875T; details: 3 ppm of compound (II) labeled with 14C, components A, B, 10 minutes at 30° C.
Experimental: as §1
Similarly to Example 32(3), reaction solutions of 30 μl were prepared and maintained for 10 minutes at 30° C. […] The reaction solutions after the maintenance were extracted with ethyl acetate and the extracted layers were TLC analyzed. […] A spot corresponding to compound (III) was detected from the reaction solution containing E. coli pKSN1589BF extract. In contrast, such a spot was not detected from the reaction solution containing E. coli pKSN2 extract.

C[C@@H](Oc1cc(-n2c(=O)cc(C(F)(F)F)n(C)c2=O)c(F)cc1Cl)C(=O)O [compound (II)]
Herbicidal Activity Barnyardgrass (Barnyardgrass): 10
spot corresponding to compound (III) labeled with 14C (TLC) [1]: detected
spot corresponding to compound (III) labeled with 14C (TLC) [2]: detected
spot corresponding to compound (III) labeled with 14C (TLC) [3]: detected
spot corresponding to compound (III) labeled with 14C (TLC) [4]: detected
spot corresponding to compound (III) labeled with 14C (TLC) [5]: detected
